Laboratory results published in US10294246B2, “Substituted boronic acids and boronate esters as immunoproteasome inhibitors” (MERCK PATENT GMBH, priority 2014, dated 2019).

What was measured:
[1] = target: human constitutive proteasome (Beta5) (Homo sapiens (Human), UniProt P28074); assay: Determination of Beta5 activity (fluorescence intensity assay, Suc-LLVY-AMC); format: biochemical; conditions: purified human constitutive proteasome 1.25 nM, Suc-LLVY-AMC 40 μM
Method in brief: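 Purified constitutive proteasome (1.25 nM) was preincubated with compounds 20 min at 25 °C in 50 mM Tris pH 7.4, 0.03% SDS, 1 mM EDTA, 1% DMSO. Suc-LLVY-AMC (40 μM) was then added for 60 min at 37 °C. AMC fluorescence was read at ex 350/em 450 nm.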

[2] = target: human immunoproteasome (LMP7) (Homo sapiens (Human), UniProt P28062); assay: Determination of LMP7 activity (fluorescence intensity assay, Suc-LLVY-AMC); format: biochemical; conditions: for Selectivity LMP7 vs Beta5: LMP7 versus Beta5; for IC50: purified human immunoproteasome 0.25 nM, Suc-LLVY-AMC 40 μM
Method in brief: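 0.25 nM purified human immunoproteasome preincubated 20 min at 25 °C with serially diluted compounds in 50 mM Tris pH 7.4, 0.03% SDS, 1 mM EDTA, 1% DMSO. Reaction started with 40 μM Suc-LLVY-AMC, run 60 min at 37 °C. Fluorescence read at ex 350/em 450 nm.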

Row | IC50 [1] [nM] | Selectivity LMP7 vs Beta5 [2] | IC50 [2] [nM] | Structure (SMILES)
1 | 500 to 5000 | +++++ (Selectivity ≥ 100) | < 50 | CN(C)C(=O)c1ccccc1CC(=O)N[C@@H](Cc1coc2ccccc12)B(O)O [Compound No. 66, [(1R)-2-(benzofuran-3-yl)-1-[[2-[2-(dimethylcarbamoyl)phenyl]acetyl]-amino]ethyl]boronic acid]
2 | 500 to 5000 | +++++ (Selectivity ≥ 100) | < 50 | O=C(Cc1ccccc1OC(F)(F)F)N[C@@H](Cc1coc2ccccc12)B(O)O [Compound No. 28, [(1R)-2-(benzofuran-3-yl)-1-[[2-[2-(trifluoromethoxy)phenyl]acetyl]-amino]ethyl]boronic acid]
3 | 500 to 5000 | +++++ (Selectivity ≥ 100) | < 50 | COc1ccc(CC(=O)N[C@@H](Cc2coc3c(C)ccc(C)c23)B(O)O)cc1 [Compound No. 129, [(1R)-2-(4,7-dimethylbenzofuran-3-yl)-1-[[2-(4-methoxyphenyl)-acetyl]amino]ethyl]boronic acid]
4 | 500 to 5000 | +++++ (Selectivity ≥ 100) | < 50 | O=C(Cc1ncccc1C(=O)N1CCOCC1)N[C@@H](Cc1coc2ccccc12)B(O)O [Compound No. 119, [(1R)-2-(benzofuran-3-yl)-1-[[2-[3-(morpholine-4-carbonyl)-2-pyridyl]acetyl]amino]ethyl]boronic acid]
5 | 500 to 5000 | +++++ (Selectivity ≥ 100) | < 50 | O=C(Cc1ccccc1)N[C@@H](CC1COc2ccccc21)B(O)O (stereo partly drawn) [Compound No. 74, [(1R)-2-(2,3-dihydrobenzofuran-3-yl)-1-[(2-phenylacetyl)amino]-ethyl]boronic acid]
6 | 50 to 500 | ++ (10 ≤ Selectivity < 50) | < 50 | COc1cc(CC(=O)N[C@@H](Cc2coc3ccccc23)B(O)O)cc(OC)c1OC [Compound No. 52, [(1R)-2-(benzofuran-3-yl)-1-[[2-(3,4,5-trimethoxyphenyl)acetyl]amino]-ethyl]boronic acid]
7 | > 5000 | +++++ (Selectivity ≥ 100) | 50 to 500 | COc1ccc(CC(=O)N[C@H](C[C@@H]2COc3ccccc32)B(O)O)cc1 [Compound No. 117, [(1S)-2-[(3S)-2,3-dihydrobenzofuran-3-yl]-1-[[2-(4-methoxyphenyl)-acetyl]amino]ethyl]boronic acid]
8 | 500 to 5000 | +++++ (Selectivity ≥ 100) | < 50 | COc1ccc(CC(=O)N[C@@H](C[C@@H]2COc3ccccc32)B(O)O)cc1 [Compound No. 114, [(1R)-2-[(3S)-2,3-dihydrobenzofuran-3-yl]-1-[[2-(4-methoxyphenyl)-acetyl]amino]ethyl]boronic acid]
9 | 500 to 5000 | +++++ (Selectivity ≥ 100) | < 50 | Cc1cccc2c(C[C@H](NC(=O)Cc3ccccc3C#N)B(O)O)coc12 [Compound No. 104, [(1R)-1-[[2-(2-cyanophenyl)acetyl]amino]-2-(7-methylbenzofuran-3-yl)ethyl]boronic acid]
10 | > 5000 | +++++ (Selectivity ≥ 100) | < 50 | CCO[C@@H](C(=O)N[C@@H](CC1COc2c(C)cccc21)B(O)O)c1ccccc1 (stereo partly drawn) [Compound No. 109, [(1R)-1-[[(2R)-2-ethoxy-2-phenyl-acetyl]amino]-2-(7-methyl-2,3-dihydrobenzofuran-3-yl)ethyl]boronic acid]
11 | > 5000 | +++++ (Selectivity ≥ 100) | 50 to 500 | COc1ccc(CC(=O)N[C@H](C[C@H]2COc3ccccc32)B(O)O)cc1 [Compound No. 118, [(1S)-2-[(3R)-2,3-dihydrobenzofuran-3-yl]-1-[[2-(4-methoxyphenyl)-acetyl]amino]ethyl]boronic acid]
12 | 500 to 5000 | ++++ (70 ≤ Selectivity < 100) |  | CC(=O)Nc1ccccc1CC(=O)N[C@@H](Cc1coc2ccccc12)B(O)O [Compound No. 103, [(1R)-1-[[2-(2-acetamidophenyl)acetyl]amino]-2-(benzofuran-3-yl)ethyl]boronic acid]
13 | > 5000 | +++++ (Selectivity ≥ 100) | < 50 | Cc1ccc2c(c1C)OCC2C[C@H](NC(=O)Cc1ccccc1)B(O)O (stereo partly drawn) [Compound No. 101, [(1R)-2-(6,7-dimethyl-2,3-dihydrobenzofuran-3-yl)-1-[(2-phenylacetyl)-amino]ethyl]boronic acid]
14 | 50 to 500 | ++ (10 ≤ Selectivity < 50) | < 50 | O=C(COc1ncc(Cl)cc1Cl)N[C@@H](Cc1ccccc1)B(O)O [Compound No. 1, [(1R)-1-[[2-[(3,5-dichloro-2-pyridyl)oxy]acetyl]amino]-2-phenyl-ethyl]boronic acid]
15 | 500 to 5000 | +++++ (Selectivity ≥ 100) | < 50 | COCc1ccccc1CC(=O)N[C@@H](Cc1coc2ccccc12)B(O)O [Compound No. 48, [(1R)-2-(benzofuran-3-yl)-1-[[2-[2-(methoxymethyl)phenyl]acetyl]-amino]ethyl]boronic acid]
16 | > 5000 | +++++ (Selectivity ≥ 100) | < 50 | C[C@H](C(=O)N[C@@H](C[C@H]1COc2ccccc21)B(O)O)c1ccccc1C(=O)N(C)C [Compound No. 106, [(1R)-2-[(3R)-2,3-dihydrobenzofuran-3-yl]-1-[[(2S)-2-[2-(dimethylcarbamoyl)phenyl]propanoyl]amino]ethyl]boronic acid]
17 | 500 to 5000 | ++++ (70 ≤ Selectivity < 100) | < 50 | COc1ccc(CC(C(=O)N[C@@H](Cc2coc3ccccc23)B(O)O)c2ccccc2)cc1 (stereo partly drawn) [Compound No. 71, [(1R)-2-(benzofuran-3-yl)-1-[[3-(4-methoxyphenyl)-2-phenyl-propanoyl]amino]ethyl]boronic acid]
18 | > 5000 | + (Selectivity < 10) | 500 to 5000 | Cc1ccc(C[C@H](NC(=O)C2(c3ccccc3)CC2)B(O)O)c(C)c1 [Compound No. 36, [(1R)-2-(2,4-dimethylphenyl)-1-[(1-phenylcyclopropanecarbonyl)-amino]ethyl]boronic acid]
19 | > 5000 | ++ (10 ≤ Selectivity < 50) | < 50 | CC(=O)Nc1ccc(CC(=O)N[C@@H](Cc2ccc(C)cc2)B(O)O)cc1 [Compound No. 21, [(1R)-1-[[2-(4-acetamidophenyl)acetyl]amino]-2-(p-tolyl)ethyl]boronic acid]
20 | 500 to 5000 | +++++ (Selectivity ≥ 100) | < 50 | COc1ccc(CCC(=O)N[C@@H](Cc2coc3c(C)c(C)ccc23)B(O)O)nc1 [Compound No. 95, [(1R)-2-(6,7-dimethylbenzofuran-3-yl)-1-[3-(5-methoxy-2-pyridyl)propanoylamino]ethyl]boronic acid]
21 | > 5000 | +++++ (Selectivity ≥ 100) | 50 to 500 | C[C@@H](C(=O)N[C@@H](C[C@@H]1COc2ccccc21)B(O)O)c1ccccc1C(=O)N(C)C [Compound No. 99, [(1R)-2-[(3S)-2,3-dihydrobenzofuran-3-yl]-1-[[(2R)-2-[2-(dimethylcarbamoyl)phenyl]propanoyl]amino]ethyl]boronic acid]
22 | 500 to 5000 | +++++ (Selectivity ≥ 100) | < 50 | COc1ccc(CC(=O)N[C@@H](C[C@@H]2COc3c(OC)cccc32)B(O)O)cc1 [Compound No. 120, [(1R)-2-[(3S)-7-methoxy-2,3-dihydrobenzofuran-3-yl]-1-[[2-(4-methoxyphenyl)acetyl]amino]ethyl]boronic acid]
23 | > 5000 | +++++ (Selectivity ≥ 100) | 50 to 500 | COc1ccc(CCC(=O)N[C@@H](CC2COc3c2ccc(C)c3C)B(O)O)nc1 (stereo partly drawn) [Compound No. 102, [(1R)-2-(6,7-dimethyl-2,3-dihydrobenzofuran-3-yl)-1-[3-(5-methoxy-2-pyridyl)propanoylamino]ethyl]boronic acid]
24 | 500 to 5000 | +++++ (Selectivity ≥ 100) | < 50 | O=C(N[C@@H](Cc1coc2ccccc12)B(O)O)[C@H](CO)c1ccccc1 [Compound No. 57, [(1R)-2-(benzofuran-3-yl)-1-[[(2S)-3-hydroxy-2-phenyl-propanoyl]-amino]ethyl]boronic acid]
25 | 500 to 5000 | +++++ (Selectivity ≥ 100) | < 50 | N#Cc1ccccc1CC(=O)N[C@@H](Cc1coc2ccccc12)B(O)O [Compound No. 90, [(1R)-2-(benzofuran-3-yl)-1-[[2-(2-cyanophenyl)acetyl]amino]ethyl]-boronic acid]
26 | > 5000 | ++++ (70 ≤ Selectivity < 100) | 50 to 500 | Cc1ccc(C[C@H](NC(=O)Cc2ccc(NS(C)(=O)=O)cc2)B(O)O)c(C)c1 [Compound No. 46, [(1R)-2-(2,4-dimethylphenyl)-1-[[2-[4-(methanesulfonamido)phenyl]-acetyl]amino]ethyl]boronic acid]
27 | > 5000 | +++++ (Selectivity ≥ 100) | < 50 | Cc1cccc2c1OC[C@H]2C[C@H](NC(=O)Cc1ccccc1C#N)B(O)O [Compound No. 130, [(1R)-1-[[2-(2-cyanophenyl)acetyl]amino]-2-[(3S)-7-methyl-2,3-dihydrobenzofuran-3-yl]ethyl]boronic acid]
